Columns and labels:
mouse DAAO = tested on: mouse DAAO; parameters: method as in PMID 28780732; details: cited from earlier work
human DAAO = tested on: human DAAO; parameters: method as in PMID 28780732; details: cited from earlier work
[1] = Free fraction of TAK-831 in human plasma; format: in vitro ADME; details: read-out: fp,human free fraction in plasma
[2] = tested on: cerebellar-based associative learning; details: mice; cited from earlier work
D-serine in cerebellum [3] = test: Translated human PD model (D-serine in cerebellum); details: taken from the mouse model
Experimental: (§1) The translational modeling steps from the mouse PK/TO/PD model to that for humans are as follows; 1) PK model was replaced by the human PK model predicted from rats with single species allometric scaling approach(6). […] The differential equations of translated human PK/TO/PD model are shown in Eq. S12-S14, 2 and 5. […] The model parameters used for simulation are summarized in Supplementary table 2.
(§2) C1 is calculated by A1/V1. […] Imax represents maximum inhibitory effect of TO on Kout.

[4] = Translated human PK model (single species allometric scaling from rats)
Experimental: as §1, §2

P-glycoprotein (P-gp) = P-glycoprotein (P-gp) (Homo sapiens, UniProt P08183); test: P-glycoprotein substrate assessment; format: in vitro ADME
P-glycoprotein (P-gp), sequence (P08183 whole entry): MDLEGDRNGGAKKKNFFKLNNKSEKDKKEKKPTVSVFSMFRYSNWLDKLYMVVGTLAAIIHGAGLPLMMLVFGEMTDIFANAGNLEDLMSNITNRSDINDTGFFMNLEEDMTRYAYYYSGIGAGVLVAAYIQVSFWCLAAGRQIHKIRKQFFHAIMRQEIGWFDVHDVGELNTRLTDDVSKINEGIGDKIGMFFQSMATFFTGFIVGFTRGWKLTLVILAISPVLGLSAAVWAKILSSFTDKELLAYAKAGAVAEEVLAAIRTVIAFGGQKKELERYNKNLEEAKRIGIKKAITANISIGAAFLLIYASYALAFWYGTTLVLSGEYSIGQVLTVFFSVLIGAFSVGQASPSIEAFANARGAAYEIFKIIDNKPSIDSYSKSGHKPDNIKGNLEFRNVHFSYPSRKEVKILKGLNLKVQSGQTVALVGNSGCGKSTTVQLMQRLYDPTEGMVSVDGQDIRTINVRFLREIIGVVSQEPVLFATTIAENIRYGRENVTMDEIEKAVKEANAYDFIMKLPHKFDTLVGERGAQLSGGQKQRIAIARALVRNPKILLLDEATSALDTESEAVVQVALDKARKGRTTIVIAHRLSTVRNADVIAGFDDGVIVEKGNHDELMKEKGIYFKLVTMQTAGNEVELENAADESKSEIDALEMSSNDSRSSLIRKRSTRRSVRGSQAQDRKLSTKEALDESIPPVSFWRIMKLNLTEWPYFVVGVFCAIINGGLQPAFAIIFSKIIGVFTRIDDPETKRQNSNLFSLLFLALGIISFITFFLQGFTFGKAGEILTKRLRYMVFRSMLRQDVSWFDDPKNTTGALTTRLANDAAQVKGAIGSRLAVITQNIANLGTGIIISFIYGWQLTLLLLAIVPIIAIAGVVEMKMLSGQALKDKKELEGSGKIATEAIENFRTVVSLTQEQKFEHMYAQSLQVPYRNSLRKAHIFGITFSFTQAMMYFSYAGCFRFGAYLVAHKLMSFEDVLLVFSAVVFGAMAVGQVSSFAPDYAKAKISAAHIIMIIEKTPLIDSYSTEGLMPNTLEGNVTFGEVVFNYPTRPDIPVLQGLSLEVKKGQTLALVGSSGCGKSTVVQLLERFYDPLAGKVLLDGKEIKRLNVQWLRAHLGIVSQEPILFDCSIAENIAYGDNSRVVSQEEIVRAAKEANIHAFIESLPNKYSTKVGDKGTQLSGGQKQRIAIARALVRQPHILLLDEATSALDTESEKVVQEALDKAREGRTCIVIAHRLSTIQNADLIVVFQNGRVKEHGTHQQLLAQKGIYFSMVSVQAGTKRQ

in vivo = details: mouse
Experimental: Mice were sacrificed (n = 2) 0.25, 0.5, 1, 2, 4, 8 and 24 h after p.o. dosing. Blood was collected with heparinized syringe and plasma was separated. Three separate brain regions (cerebellum, front and back part of cerebrum) were isolated. The radioactivity in plasma and brain regions was measured by liquid scintillation counter. […] Plasma and whole brain homogenate samples were processed for metabolite profiling by HPLC with on-line radioisotope detector or liquid scintillation counter.

D-serine in cerebellum [5] = details: cited from earlier work
[6] = Free fraction of TAK-831 in mouse plasma; format: in vitro ADME; details: read-out: fp free fraction in mouse plasma
[7] = tested on: social interaction (model of negative symptoms); details: Balb/c mice; cited from earlier work
DAAO [8] = target: DAAO (Homo sapiens, UniProt P14920); test: Inhibition of DAAO activity in vitro; format: biochemical
DAAO (Homo sapiens, UniProt P14920), sequence (P14920 whole entry, species assumed): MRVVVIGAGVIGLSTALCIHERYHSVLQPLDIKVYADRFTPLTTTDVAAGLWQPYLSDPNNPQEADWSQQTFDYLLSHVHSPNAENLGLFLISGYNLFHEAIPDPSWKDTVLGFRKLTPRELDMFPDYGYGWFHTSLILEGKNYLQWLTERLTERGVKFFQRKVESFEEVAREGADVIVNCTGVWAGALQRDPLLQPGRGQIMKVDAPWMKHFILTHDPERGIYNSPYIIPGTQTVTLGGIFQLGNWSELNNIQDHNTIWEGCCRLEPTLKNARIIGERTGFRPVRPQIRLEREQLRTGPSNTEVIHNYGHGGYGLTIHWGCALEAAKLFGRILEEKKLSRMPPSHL

[9] = target: T1, D-amino acid oxidase (DAAO) (Mus musculus, UniProt P18894); test: Cerebellum target occupancy of DAAO measured by displacement of tracer PGM019260 (mechanistic binding kinetics model); format: in vivo, C57BL/6 J mice
T1 construct: from tissue
T1 sequence (P18894 whole entry): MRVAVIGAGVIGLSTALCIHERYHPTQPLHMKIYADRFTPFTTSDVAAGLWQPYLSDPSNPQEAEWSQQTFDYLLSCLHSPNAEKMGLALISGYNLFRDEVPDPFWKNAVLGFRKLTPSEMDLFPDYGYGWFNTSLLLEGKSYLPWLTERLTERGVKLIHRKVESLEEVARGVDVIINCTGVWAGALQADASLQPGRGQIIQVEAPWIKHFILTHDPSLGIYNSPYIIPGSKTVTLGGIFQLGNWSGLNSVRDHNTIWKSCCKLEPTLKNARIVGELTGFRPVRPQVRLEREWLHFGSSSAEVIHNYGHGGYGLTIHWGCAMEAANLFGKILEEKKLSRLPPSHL
Experimental: (§3) PGM019260 was formulated in 5% dimethyl sulfoxide and 95% v/v of 20% w/v 2-hydroxypropyl-β-cyclodextrin. […] After 2, 4, 6, 8, 10 and 24 h from oral administration, PGM019260 at 60 μg/kg was administered by intravenous route (i.v.) with a dose volume of 1 mL/kg (n = 4). Mice were sacrificed 20 min after tracer dosing. Blood was collected into heparin containing tubes and plasma was separated.
(§4) The grand mean value of tracer concentration in vehicle treatment group calculated from all the time points (2, 4, 6, 8, 10 and 24 h after vehicle treatment) was used as the baseline of tracer concentration across all the time points. […] The differential equations of PK/TO/PD model are shown below (Eqs. 1, 2 and 5). […] 4 and 6, respectively.1 dAp/dt=−CLp/Vp·Ap 2 dTO/dt=Kon·BRmax−TO·Cp−Koff·TO 3 Tracer concentration=BLtr·1−TO 4 In vivoKd=Koff/Kon×fp 5 dPD/dt=Kin−Kout·BRmax−Imax·TO 6 Kin=BL·Kout
(§5) The convergence criterion was three significant digits.

novel object recognition = details: cited from earlier work
[10] = target: T2, breast cancer resistance protein (BCRP) (Homo sapiens, UniProt Q9UNQ0); test: BCRP substrate assessment; format: in vitro ADME
T2 sequence (Q9UNQ0 1-655): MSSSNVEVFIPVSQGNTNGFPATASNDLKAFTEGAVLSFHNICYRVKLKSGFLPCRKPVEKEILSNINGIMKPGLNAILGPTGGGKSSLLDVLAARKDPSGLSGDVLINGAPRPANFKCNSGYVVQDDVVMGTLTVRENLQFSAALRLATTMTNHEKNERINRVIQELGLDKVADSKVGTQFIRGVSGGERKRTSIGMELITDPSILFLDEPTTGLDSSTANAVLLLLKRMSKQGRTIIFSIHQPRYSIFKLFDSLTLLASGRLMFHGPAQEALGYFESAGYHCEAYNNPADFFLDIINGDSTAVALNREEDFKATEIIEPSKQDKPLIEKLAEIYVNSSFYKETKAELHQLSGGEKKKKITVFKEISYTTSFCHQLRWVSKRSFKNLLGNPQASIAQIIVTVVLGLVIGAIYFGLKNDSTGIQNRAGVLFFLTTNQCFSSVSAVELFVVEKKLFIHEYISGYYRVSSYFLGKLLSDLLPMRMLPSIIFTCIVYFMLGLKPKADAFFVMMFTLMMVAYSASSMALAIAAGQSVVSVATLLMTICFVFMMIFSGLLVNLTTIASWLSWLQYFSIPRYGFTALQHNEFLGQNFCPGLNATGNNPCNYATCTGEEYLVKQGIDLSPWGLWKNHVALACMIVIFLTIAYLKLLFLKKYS

[11] = Plasma PK of TAK-831 after single oral administration in mice (target occupancy study, 1-compartment model); format: in vivo, C57BL/6 J mice
Experimental: as §3, §4, §5

DAAO [12] = details: human, taken from the mouse model
Experimental: as §1, §2

DAAO [13] = tested on: DAAO; parameters: method as in PMID 28780732; details: pre-treatment; cited from earlier work

## COc1ccc(CSc2c[nH]c(=O)c(O)c2)cn1 [PGM019260]
Mouse DAAO
  DAAO inhibition in mouse enzyme in vitro: highly potent DAAO inhibition
Human DAAO
  DAAO inhibition in human enzyme in vitro: highly potent DAAO inhibition

## O=c1[nH]nc(CCc2ccc(C(F)(F)F)cc2)cc1O [TAK-831, 4-hydroxy-6-{2-[4-(trifluoromethyl)phenyl]ethyl}pyridazin-3(2H)-one]
[1]
  fraction unbound: 0.0067
[2]
  acquisition of the conditioned response: improvement in the acquisition of the conditioned response
  scopolamine induced deficit: reversing the scopolamine induced deficit
D-serine in cerebellum [3]
  Imax maximum inhibitory effect: 0.877
[4]
  Ka absorption rate constant: 0.218 h⁻¹
P-glycoprotein (P-gp)
  substrate of P-glycoprotein (P-gp): neither a substrate
In vivo; C57BL/6 J
  Kp: 0.181
  fraction unbound: 0.425
  time by which equilibrium across BBB was reached: ≤ 0.25 h
In vivo
  Kp uu: 1
D-serine in cerebellum [5]
  D-serine levels in the cerebellum of normal mice: increase D-serine levels
[6]
  fraction unbound: 0.077
[7]
  efficacy in social interaction model: efficacious
DAAO [8]; comparison between mouse and human enzyme
  in vitro IC50 values on enzymatic activity, mice vs humans: comparable between mice and humans
DAAO [8]; read-out: 50% inhibitory concentration (IC50) of DAAO activity in vitro (converted)
  IC50: 6.33 nM
[9]
  Kd: 0.809 nM
[9]; in vivo Kd vs in vitro IC50
  fold by which in vivo Kd is lower than in vitro IC50: about 8 fold
[9]; mice cerebellum, against total plasma concentration, model estimate
  Kon association rate constant: 0.0372 mL/ng/h
[9]; mice cerebellum, model estimate
  BRmax maximum binding ratio: 0.987
[9]; mice, once daily multiple doses, data not shown
  accumulation of PK or TO after once daily multiple doses (empirical, separate studies): no accumulation was observed
[9]; mice, single p.o., tracer PGM019260 in cerebellum
  TAK-831 dosage at which maximum decline of tracer concentration was observed: ≥ 3 mg/kg
[9]; mouse, read-out: Koff dissociation rate constant
  koff: 3.14e-05 s⁻¹
Novel object recognition; acute oral dose in mice
  dose at which efficacy was observed: ≥ 0.3 mg/kg
Novel object recognition; range of acute and chronic doses in mice
  identification of the novel object: able to identify the novel object
[10]
  substrate of breast cancer resistance protein (BCRP): neither a substrate
[11]; C57BL/6 J, mouse, plasma, po, single p.o. 0.3-10 mg/kg, model estimate, read-out: CLp oral clearance (converted)
  CL/F: 85.7 mL/min/kg
[11]; C57BL/6 J, mouse, plasma, po, single p.o., first sampling at 2 h
  Tmax: ≤ 2 h
[11]; p.o. dose range 0.3 to 10 mg/kg
  dose dependency of plasma exposure: increased almost dose-proportionally
[11]; single p.o. 0.3-10 mg/kg, model estimate
  Vp apparent volume of distribution: 35.7 L/kg
DAAO [12]
  BRmax maximum binding ratio: 0.987

## O=c1[nH]nc(CCc2ccc([14C](F)(F)F)cc2)cc1O [[^14C]TAK-831]
In vivo
  dose dependency of plasma exposure of radioactivity: increased almost dose-proportionally

## O=C([O-])c1ccccc1.[Na+] [sodium benzoate]
DAAO [13]
  displacement of PGM019260 in the mouse cerebellum: dose dependent displacement
